pIC50: −log10 of the molar value.
Tests used:
Assay type in all cases: biochemical
[1] = biological target: T1, MKK7 (Homo sapiens, UniProt O14733); assay: 33PanQinase enzyme assay, MKK7; parameters: purchased ProQinase GmbH, Freiburg, Germany (33PanQinase Assay Service); conditions: ratio IC50(MKK7)/IC50(MKK4)
T1 sequence (O14733 1-419): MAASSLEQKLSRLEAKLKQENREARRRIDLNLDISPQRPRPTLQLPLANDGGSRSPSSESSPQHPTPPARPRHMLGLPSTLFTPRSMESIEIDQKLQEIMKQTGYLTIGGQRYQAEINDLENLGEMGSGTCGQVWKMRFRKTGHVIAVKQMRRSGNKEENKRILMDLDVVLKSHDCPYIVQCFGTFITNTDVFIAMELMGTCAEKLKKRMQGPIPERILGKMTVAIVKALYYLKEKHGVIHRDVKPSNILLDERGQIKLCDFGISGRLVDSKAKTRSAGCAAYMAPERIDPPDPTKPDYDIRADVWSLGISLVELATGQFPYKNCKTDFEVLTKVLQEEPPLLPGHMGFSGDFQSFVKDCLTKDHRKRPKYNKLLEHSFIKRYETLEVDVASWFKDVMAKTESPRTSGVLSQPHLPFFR
Procedure: (§1) The kinase activities of the compounds of the invention were measured using the 33PanQinase® Assay Service provided by ProQinase GmbH, Freiburg, Germany. Details of the assay conditions are disclosed on the website of ProQinase (https://www.proginase.com/products-services-biochemical-assay-services/kinase-assays). In brief, all kinase assays were performed in 96-well FlashPlates™ from PerkinElmer (Boston, MA, USA) in a 50 μl reaction volume. The reaction cocktail was pipetted in four steps in the following order: • 20 μl of assay buffer (standard buffer) • 5 μl of ATP solution (in H2O) • 5 μl of test compound (in 10% DMSO) • 20 μl enzyme/subtrate mix
(§2) The reaction cocktails were incubated at 30° C. for 60 minutes. The reaction is stopped with 50 μl of 2% (v/v) H3PO4, plates were aspirated and washed two times with 200 μl 0.9% (w/v) NaCl. Incorporation of ^33Pi was determined with a microplate scintillation counter (Microbeta, Wallac).
(§3) All assays were performed with a BeckmanCoulter/SAGIAN™ Core System.
(§4) In case of single concentration assays, the potency of the test compound is expressed as % residual activity. […] The fitting method used was a least-squares fit.
(§5) Selectivity of test compounds against BRaf, JNK1 and MKK7, altogether denominated as off-targets was calculated by the ratio of IC50 (off-target)/IC50 (MKK4) and categorized as follows: […]

[2] = biological target: JNK1 (Homo sapiens, UniProt P45983); assay: 33PanQinase enzyme assay, JNK1; parameters: purchased ProQinase GmbH, Freiburg, Germany (33PanQinase Assay Service); conditions: ratio IC50(JNK1)/IC50(MKK4)
JNK1, sequence (P45983 whole entry): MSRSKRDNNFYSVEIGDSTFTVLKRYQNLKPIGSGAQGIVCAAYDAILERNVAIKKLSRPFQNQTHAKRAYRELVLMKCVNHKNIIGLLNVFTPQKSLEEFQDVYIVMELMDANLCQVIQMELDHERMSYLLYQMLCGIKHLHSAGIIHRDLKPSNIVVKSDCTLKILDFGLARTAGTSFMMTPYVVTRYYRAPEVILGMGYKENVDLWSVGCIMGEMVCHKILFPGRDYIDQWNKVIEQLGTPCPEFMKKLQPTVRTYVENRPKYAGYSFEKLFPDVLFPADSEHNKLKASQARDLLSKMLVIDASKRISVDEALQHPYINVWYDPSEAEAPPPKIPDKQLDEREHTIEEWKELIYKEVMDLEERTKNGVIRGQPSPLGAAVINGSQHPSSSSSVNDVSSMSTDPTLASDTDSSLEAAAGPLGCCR
Procedure: as §1, §2, §3, §4, §5

[3] = biological target: T2, MKK4 (Homo sapiens, UniProt P45985); assay: 33PanQinase enzyme assay, MKK4; conditions: assay 'IC50'; read-out: Potency MKK4 (IC50)
T2 construct: purchased ProQinase GmbH, Freiburg, Germany (33PanQinase Assay Service)
T2 sequence (P45985 1-399): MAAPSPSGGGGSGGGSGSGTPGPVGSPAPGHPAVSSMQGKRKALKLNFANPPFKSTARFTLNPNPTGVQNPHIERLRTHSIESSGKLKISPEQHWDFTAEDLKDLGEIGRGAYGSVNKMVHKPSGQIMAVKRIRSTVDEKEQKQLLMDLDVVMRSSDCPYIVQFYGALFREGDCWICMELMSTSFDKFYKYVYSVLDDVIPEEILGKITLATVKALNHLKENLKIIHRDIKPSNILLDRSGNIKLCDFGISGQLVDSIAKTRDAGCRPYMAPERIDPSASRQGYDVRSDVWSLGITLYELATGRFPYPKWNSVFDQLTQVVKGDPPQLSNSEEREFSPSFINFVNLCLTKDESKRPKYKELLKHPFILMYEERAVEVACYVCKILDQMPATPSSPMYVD
Procedure: as §1, §2, §3, §4
Inhibition potency against MKK4 is categorized as follows:
Assay at single concentration (100 nM):

[4] = biological target: T3, BRaf (Homo sapiens, UniProt P15056); assay: 33PanQinase enzyme assay, BRaf; conditions: ratio IC50(BRaf)/IC50(MKK4)
T3 construct: purchased ProQinase GmbH, Freiburg, Germany (33PanQinase Assay Service)
T3 sequence (P15056 whole entry, species assumed): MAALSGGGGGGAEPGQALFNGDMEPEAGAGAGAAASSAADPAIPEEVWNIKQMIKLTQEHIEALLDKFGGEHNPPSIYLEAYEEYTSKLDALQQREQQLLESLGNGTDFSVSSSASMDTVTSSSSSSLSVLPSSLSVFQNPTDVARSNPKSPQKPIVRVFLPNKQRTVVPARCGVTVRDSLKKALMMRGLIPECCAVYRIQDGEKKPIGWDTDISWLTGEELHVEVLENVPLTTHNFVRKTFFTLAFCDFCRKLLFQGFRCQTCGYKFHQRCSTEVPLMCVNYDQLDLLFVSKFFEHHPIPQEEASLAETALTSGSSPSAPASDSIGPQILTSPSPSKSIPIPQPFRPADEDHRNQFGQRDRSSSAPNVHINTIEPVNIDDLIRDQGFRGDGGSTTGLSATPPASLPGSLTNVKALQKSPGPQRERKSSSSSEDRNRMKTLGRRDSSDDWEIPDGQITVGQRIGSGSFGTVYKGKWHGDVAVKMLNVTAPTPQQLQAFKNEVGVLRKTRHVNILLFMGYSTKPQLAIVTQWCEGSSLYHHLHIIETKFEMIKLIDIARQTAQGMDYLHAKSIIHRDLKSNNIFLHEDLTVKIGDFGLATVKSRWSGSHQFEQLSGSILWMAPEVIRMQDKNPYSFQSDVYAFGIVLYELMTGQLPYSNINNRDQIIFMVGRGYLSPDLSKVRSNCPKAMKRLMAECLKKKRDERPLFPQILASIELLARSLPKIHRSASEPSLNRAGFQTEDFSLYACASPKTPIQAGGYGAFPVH
Procedure: as §1, §2, §3, §4, §5

| Selectivity IVIKK7, IC50(off-target)/IC50(MKK4) [1] | Selectivity JNK1, IC50(off-target)/IC50(MKK4) [2] | pIC50 [3] | Selectivity Braf, IC50(off-target)/IC50(MKK4) [4] | SMILES |
| --- | --- | --- | --- | --- |
| +++ (IC50(off-target)/IC50(MKK4) > 100) | ◯ (3 ≥ IC50(off-target)/IC50(MKK4)) | 6.00 to 7.00 | ◯ (3 ≥ IC50(off-target)/IC50(MKK4)) | CCCS(=O)(=O)Nc1ccc(F)c(C(=O)c2c[nH]c3ncc(-c4ccccc4N)cc23)c1F [Example 122, N-(3-(5-(2-aminophenyl)-1H-pyrrolo[2,3-b]pyridine-3-carbonyl)-2,4-difluorophenyl)propane-1-sulfonamide] |
| +++ (IC50(off-target)/IC50(MKK4) > 100) | + (10 ≥ IC50(off-target)/IC50(MKK4) > 3) | 6.00 to 7.00 | ◯ (3 ≥ IC50(off-target)/IC50(MKK4)) | CCCS(=O)(=O)Nc1ccc(F)c(C(=O)c2c[nH]c3ncc(N4CC(C(=O)O)C4)cc23)c1F [Example 137, 1-(3-(2,6-difluoro-3-(propylsulfonamido)benzoyl)-1H-pyrrolo[2,3-b]pyridin-5-yl)azetidine-3-carboxylic acid] |

Second part, the compound before the results:

| SMILES | Selectivity IVIKK7, IC50(off-target)/IC50(MKK4) [1] | Selectivity JNK1, IC50(off-target)/IC50(MKK4) [2] | pIC50 [3] | Selectivity Braf, IC50(off-target)/IC50(MKK4) [4] |
| --- | --- | --- | --- | --- |
| CCCS(=O)(=O)Nc1ccc(F)c(C(=O)c2c[nH]c3ncc(-c4cccc(C(F)(F)F)c4)cc23)c1F [Example 117, N-(2,4-difluoro-3-(5-(3-(trifluoromethyl)phenyl)-1H-pyrrolo[2,3-b]pyridine-3-carbonyl)phenyl)propane-1-sulfonamide] | +++ (IC50(off-target)/IC50(MKK4) > 100) | ◯ (3 ≥ IC50(off-target)/IC50(MKK4)) | 5.00 to 6.00 | ◯ (3 ≥ IC50(off-target)/IC50(MKK4)) |
| CCCS(=O)(=O)Nc1ccc(F)c(C(=O)c2c[nH]c3ncc(-c4ccccc4C#N)cc23)c1F [Example 118, N-(3-(5-(2-cyanophenyl)-1H-pyrrolo[2,3-b]pyridine-3-carbonyl)-2,4-difluorophenyl)propane-1-sulfonamide] | +++ (IC50(off-target)/IC50(MKK4) > 100) | + (10 ≥ IC50(off-target)/IC50(MKK4) > 3) | 6.00 to 7.00 | ◯ (3 ≥ IC50(off-target)/IC50(MKK4)) |
| CCCS(=O)(=O)Nc1ccc(F)c(C(=O)c2c[nH]c3ncc(-c4ccc(N=S(C)(C)=O)cc4)cc23)c1F [Example 119, N-(3-(5-(4-((dimethyl(oxo)-l6-sulfaneylidene)amino)phenyl)-1H-pyrrolo[2,3-b]pyridine-3-carbonyl)-2,4-difluorophenyl)propane-1-sulfonamide] | +++ (IC50(off-target)/IC50(MKK4) > 100) | ◯ (3 ≥ IC50(off-target)/IC50(MKK4)) | 6.00 to 7.00 | ◯ (3 ≥ IC50(off-target)/IC50(MKK4)) |
| COc1ncc(-c2cnc3[nH]cc(C(=O)c4cccc(NS(=O)(=O)Cc5ccccc5)c4F)c3c2)cn1 [Example 130, N-(2-fluoro-3-(5-(2-methoxypyrimidin-5-yl)-1H-pyrrolo[2,3-b]pyridine-3-carbonyl)phenyl)-1-phenylmethanesulfonamide] | +++ (IC50(off-target)/IC50(MKK4) > 100) | ++ (100 ≥ IC50(off-target)/IC50(MKK4) > 10) | 6.00 to 7.00 | ++ (100 ≥ IC50(off-target)/IC50(MKK4) > 10) |
| O=C(c1cccc(NS(=O)(=O)Cc2ccccc2)c1F)c1c[nH]c2ncc(-c3cnc(C4CC4)nc3)cc12 [Example 131, N-(3-(5-(2-cyclopropylpyrimidin-5-yl)-1H-pyrrolo[2,3-b]pyridine-3-carbonyl)-2-fluorophenyl)-1-phenylmethanesulfonamide] | +++ (IC50(off-target)/IC50(MKK4) > 100) | ++ (100 ≥ IC50(off-target)/IC50(MKK4) > 10) | 6.00 to 7.00 | ++ (100 ≥ IC50(off-target)/IC50(MKK4) > 10) |
| O=C(c1cccc(NS(=O)(=O)Cc2ccccc2)c1F)c1c[nH]c2ncc(-c3cccnc3)cc12 [Example 132, N-(2-fluoro-3-(5-(pyridin-3-yl)-1H-pyrrolo[2,3-b]pyridine-3-carbonyl)phenyl)-1-phenylmethanesulfonamide] | +++ (IC50(off-target)/IC50(MKK4) > 100) | ◯ (3 ≥ IC50(off-target)/IC50(MKK4)) | 6.00 to 7.00 | ++ (100 ≥ IC50(off-target)/IC50(MKK4) > 10) |
| O=C(c1ccc(F)c(NS(=O)(=O)Cc2ccccc2)c1)c1c[nH]c2ncc(-c3ccc(Cl)cc3)cc12 [Example 133, N-(5-(5-(4-chlorophenyl)-1H-pyrrolo[2,3-b]pyridine-3-carbonyl)-2-fluorophenyl)-1-phenylmethanesulfonamide] | +++ (IC50(off-target)/IC50(MKK4) > 100) | ◯ (3 ≥ IC50(off-target)/IC50(MKK4)) | 6.00 to 7.00 | ++ (100 ≥ IC50(off-target)/IC50(MKK4) > 10) |
| CCCS(=O)(=O)Nc1ccc(F)c(C(=O)c2c[nH]c3ncc(N4CC(O)C4)cc23)c1F [Example 134, N-(2,4-difluoro-3-(5-(3-hydroxyazetidin-1-yl)-1H-pyrrolo[2,3-b]pyridine-3-carbonyl)phenyl)propane-1-sulfonamide] | ++ (100 ≥ IC50(off-target)/IC50(MKK4) > 10) | ◯ (3 ≥ IC50(off-target)/IC50(MKK4)) | 5.00 to 6.00 | ◯ (3 ≥ IC50(off-target)/IC50(MKK4)) |
| CCCS(=O)(=O)Nc1ccc(F)c(C(=O)c2c[nH]c3ncc(N4CCC(=O)CC4)cc23)c1F [Example 135, N-(2,4-difluoro-3-(5-(4-oxopiperidin-1-yl)-1H-pyrrolo[2,3-b]pyridine-3-carbonyl)phenyl)propane-1-sulfonamide] | ++ (100 ≥ IC50(off-target)/IC50(MKK4) > 10) | ◯ (3 ≥ IC50(off-target)/IC50(MKK4)) | 5.00 to 6.00 | ◯ (3 ≥ IC50(off-target)/IC50(MKK4)) |
| CCCS(=O)(=O)Nc1ccc(F)c(C(=O)c2c[nH]c3ncc(N4CCC(O)CC4)cc23)c1F [Example 136, N-(2,4-difluoro-3-(5-(4-hydroxypiperidin-1-yl)-1H-pyrrolo[2,3-b]pyridine-3-carbonyl)phenyl)propane-1-sulfonamide] | ++ (100 ≥ IC50(off-target)/IC50(MKK4) > 10) | ◯ (3 ≥ IC50(off-target)/IC50(MKK4)) | 5.00 to 6.00 | ◯ (3 ≥ IC50(off-target)/IC50(MKK4)) |

Reference: patent publication US11912701B2, “Protein kinase inhibitors for promoting liver regeneration or reducing or preventing hepatocyte death” (HEPAREGENIX GMBH, priority 2018, dated 2024)
